The numbers were not newly measured in patent US10588873B2, “Topical antifungal compositions” (Exodos Life Sciences LP, priority 2015, dated 2020), which cites them from elsewhere.

For the series the following is noted: only or first printed pKa.

In general, pKa refers to the negative logarithm of the acid dissociation constant. As for `CC(=O)CCC(=O)O` [levulinic acid], the pKa is recorded as 4.6.
With `CCCCCC(=O)O` [caproic (hexanoic) acid], the pKa is recorded as 4.88.
